Two molecules from PMC4084896 (PLoS ONE, 2014) can be followed below.

Usually IC50 stands for the concentration at which inhibition is half-maximal.

In series [1] the target is T1, glucocorticoid receptor (GR) (Homo sapiens, UniProt P04150).
T1 sequence (P04150 1-777): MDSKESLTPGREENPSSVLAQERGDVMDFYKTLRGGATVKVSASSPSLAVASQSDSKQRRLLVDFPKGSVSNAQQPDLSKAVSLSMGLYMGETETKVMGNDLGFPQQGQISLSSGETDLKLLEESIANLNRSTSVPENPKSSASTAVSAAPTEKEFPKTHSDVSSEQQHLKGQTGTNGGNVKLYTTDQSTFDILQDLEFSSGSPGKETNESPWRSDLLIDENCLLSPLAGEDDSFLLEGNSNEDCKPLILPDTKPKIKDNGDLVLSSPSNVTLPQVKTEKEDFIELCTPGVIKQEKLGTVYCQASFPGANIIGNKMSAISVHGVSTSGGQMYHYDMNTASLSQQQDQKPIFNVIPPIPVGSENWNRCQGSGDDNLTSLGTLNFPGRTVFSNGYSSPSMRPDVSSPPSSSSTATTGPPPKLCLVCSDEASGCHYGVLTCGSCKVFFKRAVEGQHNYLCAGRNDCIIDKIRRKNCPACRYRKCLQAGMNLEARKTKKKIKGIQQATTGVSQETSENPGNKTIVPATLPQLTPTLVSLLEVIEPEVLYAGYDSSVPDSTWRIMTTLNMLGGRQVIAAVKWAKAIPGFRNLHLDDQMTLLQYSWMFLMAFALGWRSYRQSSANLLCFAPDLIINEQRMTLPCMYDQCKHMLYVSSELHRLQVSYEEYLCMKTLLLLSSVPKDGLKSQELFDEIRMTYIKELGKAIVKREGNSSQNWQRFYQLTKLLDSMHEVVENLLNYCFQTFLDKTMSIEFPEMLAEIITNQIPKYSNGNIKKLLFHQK
Briefly: GR gene reporter assay in AZ-GR cells, agonist mode. It is filed as cell-based. The settings on record: up to / at 100 µM, 24 h. An excerpt:
(§1) A stably transfected gene reporter cell line AZ-AHR, derived from human hepatoma HepG2 cells transfected with a construct containing several AhR binding sites upstream of a luciferase reporter gene, was used for assessment of AhR transcriptional activity. A stably transfected gene reporter cell line AZ-GR, derived from human cervix carcinoma HeLa cells transfected with a construct containing several GR response elements upstream of a luciferase reporter gene, was used for assessment of GR transcriptional activity. Cells were incubated for 24 h with tested compounds and/or vehicle (DMSO; 0.1% v/v), in the presence or absence of TCDD (5 nM; AZ-AHR cells) or DEX (100 nM; AZ-GR cells). After the treatments, cells were lysed and luciferase activity was measured. In parallel, cell viability was determined by conventional MTT test.
(§2) There is multiple evidence for the role of glucocorticoid receptor (GR) in regulation of AhR activity. […] Gene reporter assays were performed in agonist and antagonist mode (similarly as described in section 3.1.).

Series [2] relates to tyrosine aminotransferase (TAT) mRNA. In words: TAT mRNA in HepG2 cells (qRT-PCR). In kind it is cell-based, human. The settings on record: HepG2, 1, 30, 50 µM, 24 h. (Real-time PCR tracks product formation cycle by cycle.)
The target of series [3] is T2, aryl hydrocarbon receptor AhR (Homo sapiens, UniProt P35869).
T2 construct: endogenous in cells; host or cells: AZ-AHR (stably transfected reporter line derived from HepG2)
T2 sequence (P35869 11-848): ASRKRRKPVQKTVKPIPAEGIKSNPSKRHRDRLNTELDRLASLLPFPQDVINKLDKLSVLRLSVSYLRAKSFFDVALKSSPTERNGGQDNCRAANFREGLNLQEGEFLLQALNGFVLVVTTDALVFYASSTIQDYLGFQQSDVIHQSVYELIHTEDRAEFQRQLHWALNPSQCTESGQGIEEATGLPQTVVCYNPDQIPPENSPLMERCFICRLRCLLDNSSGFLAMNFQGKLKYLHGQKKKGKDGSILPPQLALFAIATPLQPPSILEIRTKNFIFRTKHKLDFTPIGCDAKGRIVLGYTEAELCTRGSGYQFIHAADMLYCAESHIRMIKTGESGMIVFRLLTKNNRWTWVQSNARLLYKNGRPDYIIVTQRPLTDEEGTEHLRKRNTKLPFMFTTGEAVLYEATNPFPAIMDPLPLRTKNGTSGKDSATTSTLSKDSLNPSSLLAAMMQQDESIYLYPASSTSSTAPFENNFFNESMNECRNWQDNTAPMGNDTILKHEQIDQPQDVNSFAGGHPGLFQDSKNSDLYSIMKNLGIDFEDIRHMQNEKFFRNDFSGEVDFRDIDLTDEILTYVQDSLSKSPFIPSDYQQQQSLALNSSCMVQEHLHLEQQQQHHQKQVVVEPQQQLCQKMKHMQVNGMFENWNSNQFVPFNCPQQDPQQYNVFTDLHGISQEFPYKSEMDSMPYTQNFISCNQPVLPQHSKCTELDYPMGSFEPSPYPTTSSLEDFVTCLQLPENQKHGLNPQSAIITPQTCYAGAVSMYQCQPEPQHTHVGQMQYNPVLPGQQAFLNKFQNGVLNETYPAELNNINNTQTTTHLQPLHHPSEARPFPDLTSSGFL
In words: AhR gene reporter assay in AZ-AHR cells, antagonist mode (TCDD 5 nM). It is filed as cell-based. Particulars: 24 h, in the presence of TCDD 5 nM.
From the text: as §1
Gene reporter assays were performed in two different experimental layouts. In agonist mode, cells were treated with increasing concentrations of tested compounds, and the half-maximal effective concentrations (EC50) were calculated.
(In general: Reporter assays use an easily measured gene product as a stand-in for the process of interest.)

For another series, the system named is AZ-GR cells. Briefly: MTT cytotoxicity test in AZ-GR cells. Particulars: 24 h incubation, read-out: AZ-GR viability - MTT IC50. It is filed as cell-based, human.
From the text: as §1, §2
(Tetrazolium dyes change colour on reduction, which living cells bring about.)

Where two headings read alike, the source gives them in different places.

Regarding `CC(=O)N1CCN(c2ccc(OCC3COC(Cn4ccnc4)(c4ccc(Cl)cc4Cl)O3)cc2)CC1` (racemic) [rac-KET, ketoconazole], the “increase of luciferase activity, agonist mode” value in series [1] was “approximately 5 fold”. For the same molecule, in series [2], the “TAT mRNA induction (in words)” value is listed as “strong, concentration-dependent induction”. Besides, the concentration for half-maximal inhibition (IC50) in series [3] was 31.1 ± 3.7 µM; in the series with AZ-GR cells (Homo sapiens), over 100 µM.

As for `CC(=O)N1CCN(c2ccc(OC[C@H]3CO[C@](Cn4ccnc4)(c4ccc(Cl)cc4Cl)O3)cc2)CC1` [(+)-KET, (2R,4S)-(+)-KET], in series [1], the “increase of luciferase activity, agonist mode” value is “did not induce luciferase activity”. In addition, the “TAT mRNA induction (in words)” value in series [2] is “strong, concentration-dependent induction”. The IC50 in series [3] was 22.3 ± 6.3 µM; in the series on AZ-GR cells it was 82.6 ± 23.7 µM.
